{"source": "patent US20230277427A1", "about": "“COOLING SENSATION COMPOSITIONS” (GIVAUDAN SA, priority 2020, published 2023)", "key": {"[1]": {"experiment": "Solubility of compounds of formula (I) in different solvents (Example A)", "format": "physicochemical", "details": "for in the fridge (precipitation): about 4° C. over night; for solubility @ RT: weight % of compound", "procedure": "Into a 20 ml vial 0.4 g of 2-methyl-1-(2-(5-(p-tolyl)-1H-imidazol-2-yl)piperidin-1-yl)butan-1-one (white solid) have been added followed by the addition of 1.6 g of the respective solvent as indicated in Table 1 below. The vial was warmed to about 50° C. with gentle agitation for 1 hour. If 2-methyl-1-(2-(5-(p-tolyl)-1H-imidazol-2-yl)piperidin-1-yl)butan-1-one hasn't dissolved, 2 g of the respective solvent was added (resulting in a composition comprising 10 weight % of a compound of formula (I)), and again gentle agitated for an additional hour at about 50° C. If 2-methyl-1-(2-(5-(p-tolyl)-1H-imidazol-2-yl)piperidin-1-yl)butan-1-one still hasn't dissolved, 4 g of the respective solvent was added (resulting in a composition comprising 5 weight % of a compound of formula (I)), and again gentle agitated for an additional hour at about 50° C.\nIf 2-methyl-1-(2-(5-(p-tolyl)-1H-imidazol-2-yl)piperidin-1-yl)butan-1-one has dissolved, the vial was removed from the heat and was allowed to cool to room temperature. If no precipitation was observed the vials haven been placed in the fridge (about 4° C.) over night.\nIf 2-methyl-1-(2-(5-(p-tolyl)-1H-imidazol-2-yl)piperidin-1-yl)butan-1-one still has not dissolved, the procedure above has been repeated, starting with 0.05 g of 2-methyl-1-(2-(5-(p-tolyl)-1H-imidazol-2-yl)piperidin-1-yl)butan-1-one and 0.95 g of the respective solvent as indicated in Table 1 below. If still not dissolved, 1 g of the respective solvent was added (resulting in a composition comprising 2.5 weight % of a compound of formula (I))). If still not dissolved further solvent was added."}, "[2]": {"experiment": "Stability of the solutions over time at different temperature (Example B)", "format": "physicochemical", "procedure": "The compound of Formula 1 was 2-methyl-1-(2-(5-(p-tolyl)-1H-imidazol-2-yl)piperidin-1-yl)butan-1-one (hereinafter “the compound”). The testing procedure with a number of different solvents was as follows: • 1. To 0.4 g compound was added 1.6 g solvent. This corresponds to a 20% solution. • 2. This mixture was warmed to 50° C. and agitated for 1 hour. • 3. If the compound dissolved, the solution was allowed to cool to room temperature, and then if it remained clear, it was stored overnight at 4° C. • 4. If crystals had developed, a further 2 g solvent was added (this now corresponding to a 10% solution) and step 2 were performed. • 5. The observations and actions of step 3 were performed. • 6. If the 10% combination of step 4 was not a solution, a further 4 g solvent was added (this now corresponding to a 5% solution), and step 2 were performed. • 7. The observations and actions of step 3 were performed. If crystals had developed, any such solvent was considered unsuitable Any solvent in which the compound was not crystallising at a 20 weight % solution, the testing procedure was repeated with a higher concentration as follows: • 1. To 1 g compound was added 1 g solvent. This corresponds to a 50% solution. • 2. This mixture was warmed to 50° C. and agitated for 1 hour. • 3. If the compound dissolved, the solution was allowed to cool to room temperature, and then if it remained clear, it was stored overnight at 4° C. • 4. If crystals had developed, a further 0.5 g solvent was added (this now corresponding to a 40% solution) and step 2 were performed. • 5. The observations and actions of step 3 were performed. • 6. If the 40% combination of step 4 was not a solution, a further 0.83 g solvent was added (this now corresponding to a 30% solution), and step 2 were performed. • 7. The observations and actions of step 3 were performed."}}, "data": [{"smiles": "CCC(C)C(=O)N1CCCCC1c1ncc(-c2ccc(C)cc2)[nH]1", "note": "(stereo not shown) [2-methyl-1-(2-(5-(p-tolyl)-1H-imidazol-2-yl)piperidin-1-yl)butan-1-one]", "values": [{"measurement": "in the fridge (precipitation)", "setting": "[1]; solvent Butyl lactate, 10% solution", "value": "no crystals observed"}, {"measurement": "solubility @ RT", "setting": "[1]; solvent Butyl lactate, dissolved at about 50° C., cooled to room temperature", "value": 10, "unit": "%"}, {"measurement": "in the fridge (precipitation)", "setting": "[1]; solvent Ethanol abs., 20% solution", "value": "no crystals observed"}, {"measurement": "solubility @ RT", "setting": "[1]; solvent Ethanol abs., dissolved at about 50° C., cooled to room temperature", "value": 20, "unit": "%"}, {"measurement": "in the fridge (precipitation)", "setting": "[1]; solvent Ethyl lactate, 10% solution", "value": "no crystals observed"}, {"measurement": "solubility @ RT", "setting": "[1]; solvent Ethyl lactate, dissolved at about 50° C., cooled to room temperature", "value": 10, "unit": "%"}, {"measurement": "in the fridge (precipitation)", "setting": "[1]; solvent Isopropyl alcohol, 10% solution", "value": "no crystals observed"}, {"measurement": "solubility @ RT", "setting": "[1]; solvent Isopropyl alcohol, dissolved at about 50° C., cooled to room temperature", "value": 10, "unit": "%"}, {"measurement": "in the fridge (precipitation)", "setting": "[1]; solvent Isopropylidene glycerol, 10% solution", "value": "no crystals observed"}, {"measurement": "solubility @ RT", "setting": "[1]; solvent Isopropylidene glycerol, dissolved at about 50° C., cooled to room temperature", "value": 10, "unit": "%"}, {"measurement": "in the fridge (precipitation)", "setting": "[1]; solvent L-Lactic acid, purity 86.7 weight %, 20% solution", "value": "no crystals observed"}, {"measurement": "solubility @ RT", "setting": "[1]; solvent L-Lactic acid, purity 86.7 weight %, dissolved at about 50° C., cooled to room temperature", "value": 20, "unit": "%"}, {"measurement": "in the fridge (precipitation)", "setting": "[1]; solvent Propylene glycol, 2.5% solution", "value": "no crystals observed"}, {"measurement": "solubility @ RT", "setting": "[1]; solvent Propylene glycol, dissolved at about 50° C., cooled to room temperature", "value": 2.5, "unit": "%"}, {"measurement": "in the fridge (precipitation)", "setting": "[1]; solvent Triacetin, 1% solution", "value": "no crystals observed"}, {"measurement": "solubility @ RT", "setting": "[1]; solvent Triacetin, dissolved at about 50° C., cooled to room temperature", "value": 1, "unit": "%"}, {"measurement": "in the fridge (precipitation)", "setting": "[1]; solvent Triethyl citrate, 2.5% solution", "value": "no crystals observed"}, {"measurement": "solubility @ RT", "setting": "[1]; solvent Triethyl citrate, dissolved at about 50° C., cooled to room temperature", "value": 2.5, "unit": "%"}, {"measurement": "solubility @ RT", "setting": "[1]; solvent Water dest.", "value": "<1% (not soluble)"}, {"measurement": "in the fridge (precipitation)", "setting": "[1]; solvent dl-Lactic acid, purity 88 weight %, 20% solution", "value": "no crystals observed"}, {"measurement": "solubility @ RT", "setting": "[1]; solvent dl-Lactic acid, purity 88 weight %, dissolved at about 50° C., cooled to room temperature", "value": 20, "unit": "%"}, {"measurement": "stability of a solution, weight % of compound, @ 4° C. Overnight", "setting": "[2]; solvent Butyl lactate", "value": 20, "unit": "% weight %"}, {"measurement": "stability of a solution, weight % of compound, @ 4° C. Overnight", "setting": "[2]; solvent Ethanol abs.", "value": 30, "unit": "% weight %"}, {"measurement": "stability of a solution, weight % of compound, @ 4° C. Overnight", "setting": "[2]; solvent Ethyl lactate", "value": 10, "unit": "% weight %"}, {"measurement": "stability of a solution, weight % of compound, @ 4° C. Overnight", "setting": "[2]; solvent Isopropyl alcohol", "value": 10, "unit": "% weight %"}, {"measurement": "stability of a solution, weight % of compound, @ 4° C. Overnight", "setting": "[2]; solvent Isopropylidene glycerol", "value": 10, "unit": "% weight %"}, {"measurement": "stability of a solution, weight % of compound, @ 4° C. Overnight", "setting": "[2]; solvent L-Lactic acid, purity 86.7 weight %", "value": 50, "unit": "% weight %"}, {"measurement": "stability of a solution, weight % of compound, @ 4° C. Overnight", "setting": "[2]; solvent dl-Lactic acid, purity 88 weight %", "value": 50, "unit": "% weight %"}]}]}
